Measured values from patent US4117145A, “1-Substituted pyrazoles” (Bayer Aktiengesellschaft, priority 1975, dated 1978).

Tested on: thromb formation (left jugular vein, rats)
Assay: Antithrombotic action: thromb formation in supercooled left jugular vein of rats, thromb weighed 4 hours later
Type: in vivo, rat
Description: The left jugular vein of rats weighing 170 to 180 g was exposed under ether narcosis and supercooled to -12° C for 2 minutes to stimulate thromb formation. The thromb was isolated from the vein 4 hours later, and was weighed. The test animals were given the test preparation in tragacanth mucilage immediately before supercooling the wall of the blood vessel. As a result, the protective antithrombotic activity was tested in the first 4 hours after stimulating thromb formation.

## Cc1cc(OC(=O)c2ccco2)n(CCOc2ccc3ccccc3c2)n1 [Example 20, 5-(Furyl-(2)-carbonyloxy)-3-methyl-1-(2-(β-naphthyloxy)-ethyl)-pyrazole]
After a 4 hour period of action
  reduction of size of the thrombs: 61%
rats, 10 mg/kg, administered orally immediately before supercooling, thromb isolated 4 hours later, 12 experiments, control 115 ± 12 (14 experiments)
  Thromb size, mean value: 45 ± 10 µg
rats, 10 mg/kg, administered orally, versus control animals without active compound
  Inhibition in %: 61%
